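How tested: cells in 96-well plates exposed to compound for 48 hours at five concentrations. GI50: concentration for 50% inhibition of growth. The concentration for full growth arrest is given as TGI.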
Columns and labels:
Experiment in all cases: NCI anticancer screen, dose series, 48 h
EKVX NSCLC = tested on: EKVX NSCLC
U251 CNS = tested on: U251 CNS
UACC-62 melanoma = tested on: UACC-62 melanoma
UO-31 renal = tested on: UO-31 renal
HL-60(TB) leukemia = tested on: HL-60(TB) leukemia
HT29 colon = tested on: HT29 colon
OVCAR-4 ovarian = tested on: OVCAR-4 ovarian
786-0 renal = tested on: 786-0 renal
DLD-1 colon = tested on: DLD-1 colon
KM20L2 colon = tested on: KM20L2 colon

`C=C1C(=O)O[C@H]2[C@H]1CC/C(COC(=O)NCc1ccc(Cn3c(=O)sn(-c4ccc(OC)cc4)c3=O)cc1)=C\CC[C@@]1(C)O[C@@H]21` was tested, and the GI50 (EKVX NSCLC) was 3.5 µM, the TGI (EKVX NSCLC) was 14.6 µM and the GI50 (U251 CNS) was 4.11 µM. It also gave a TGI (U251 CNS) of 13.9 µM, a GI50 (UACC-62 melanoma) of 1.86 µM and a TGI (UACC-62 melanoma) of 3.84 µM. It also gave a GI50 (UO-31 renal) of 1.56 µM, a TGI (UO-31 renal) of 2.94 µM and a GI50 (HL-60(TB) leukemia) of 2.12 µM. It also gave a TGI (HL-60(TB) leukemia) of 5.48 µM, a GI50 (HT29 colon) of 1.96 µM and a TGI (HT29 colon) of 3.51 µM. It also gave a GI50 (OVCAR-4 ovarian) of 1.64 µM, a TGI (OVCAR-4 ovarian) of 3.98 µM and a GI50 (786-0 renal) of 2.05 µM. It also gave a TGI (786-0 renal) of 4.51 µM.
With `O=c1ccc2ccccc2cc1[O-].O=c1ccc2ccccc2cc1[O-].[O]=[U+2]=[O]` the GI50 (EKVX NSCLC) was 10.4 µM, the TGI (EKVX NSCLC) was 55.7 µM and the GI50 (DLD-1 colon) was 19.5 µM. The TGI (DLD-1 colon) was > 100 µM, the GI50 (U251 CNS) was 16.5 µM and the TGI (U251 CNS) was 46.5 µM. It also gave a GI50 (UACC-62 melanoma) of 16.9 µM, a TGI (UACC-62 melanoma) of 39.6 µM and a GI50 (HL-60(TB) leukemia) of 14 µM. It also gave a TGI (HL-60(TB) leukemia) of 52.3 µM, a GI50 (HT29 colon) of 2.51 µM and a TGI (HT29 colon) of 6.97 µM. The GI50 (KM20L2 colon) was 4.5 µM, the TGI (KM20L2 colon) was 90.1 µM and the GI50 (OVCAR-4 ovarian) was 14.7 µM. For the same compound, the TGI (OVCAR-4 ovarian) was 55.1 µM, the GI50 (786-0 renal) was 15 µM and the TGI (786-0 renal) was 40.8 µM.
`Cc1ccc(-n2c3nc(=O)[nH]c(=O)c-3cc3cc([N+](=O)[O-])ccc32)cc1` showed a GI50 (EKVX NSCLC) of 33.1 µM, a TGI (EKVX NSCLC) of 67 µM and a GI50 (U251 CNS) of 5.14 µM. For the same compound, the TGI (U251 CNS) was > 100 µM, the GI50 (UACC-62 melanoma) was 12.1 µM and the TGI (UACC-62 melanoma) was 29.8 µM. The GI50 (UO-31 renal) was 23 µM, the TGI (UO-31 renal) was 68.2 µM and the GI50 (HL-60(TB) leukemia) was 3.98 µM. The TGI (HL-60(TB) leukemia) was > 100 µM, the GI50 (HT29 colon) was 12 µM and the TGI (HT29 colon) was 37.2 µM. For the same compound, the GI50 (OVCAR-4 ovarian) was 24.1 µM, the TGI (OVCAR-4 ovarian) was 98.8 µM and the GI50 (786-0 renal) was 10.3 µM. The TGI (786-0 renal) was 29.5 µM.
In the case of `O=C(/C(=C/c1ccc([N+](=O)[O-])cc1)SCc1ccccc1)c1ccc(Cl)cc1`, the GI50 (EKVX NSCLC) is reported as 6.77 µM, the TGI (EKVX NSCLC) is reported as 20.2 µM and the GI50 (U251 CNS) is reported as 1.88 µM. For the same compound, the TGI (U251 CNS) was 4.09 µM, the GI50 (UACC-62 melanoma) was 2.56 µM and the TGI (UACC-62 melanoma) was 9.12 µM. For the same compound, the GI50 (UO-31 renal) was 1.5 µM, the TGI (UO-31 renal) was 3.3 µM and the GI50 (HL-60(TB) leukemia) was 3.21 µM. It also gave a TGI (HL-60(TB) leukemia) of 13.6 µM, a GI50 (HT29 colon) of 2.54 µM and a TGI (HT29 colon) of 5.75 µM. The GI50 (OVCAR-4 ovarian) was 3.24 µM, the TGI (OVCAR-4 ovarian) was 13.3 µM and the GI50 (786-0 renal) was 1.77 µM. For the same compound, the TGI (786-0 renal) was 3.41 µM.
`CCOC(=O)C1=C(C(=O)OCC)C2c3ccccc3C=CN2C(C(=O)OCC)=C(SC)S1` (stereo not drawn) was tested, and the TGI (EKVX NSCLC) was > 100 µM, the TGI (DLD-1 colon) was > 100 µM and the TGI (U251 CNS) was > 100 µM. The TGI (UACC-62 melanoma) was > 100 µM, the TGI (UO-31 renal) was > 100 µM and the TGI (HL-60(TB) leukemia) was > 100 µM. For the same compound, the TGI (HT29 colon) was > 100 µM, the TGI (KM20L2 colon) was > 100 µM and the TGI (786-0 renal) was > 100 µM.
In the case of `Cc1cc(I)cc(CN(CCCN(C)C)C(C)C)c1O`, the GI50 (EKVX NSCLC) is reported as 18.3 µM, the TGI (EKVX NSCLC) is reported as 42.9 µM and the GI50 (U251 CNS) is reported as 18.5 µM. For the same compound, the TGI (U251 CNS) was 36.1 µM, the GI50 (UACC-62 melanoma) was 15.2 µM and the TGI (UACC-62 melanoma) was 33.7 µM. For the same compound, the GI50 (UO-31 renal) was 14.5 µM, the TGI (UO-31 renal) was 32.6 µM and the GI50 (HL-60(TB) leukemia) was 18.2 µM. It also gave a TGI (HL-60(TB) leukemia) of 36 µM, a GI50 (HT29 colon) of 9.23 µM and a TGI (HT29 colon) of 21.2 µM. The GI50 (OVCAR-4 ovarian) was 37.2 µM, the TGI (OVCAR-4 ovarian) was > 100 µM and the GI50 (786-0 renal) was 15.7 µM. The TGI (786-0 renal) was 30.5 µM.
With `O=C1CCC2(c3ccc(Cl)cc3)Nc3ccncc3N12` (stereo not drawn) the TGI (EKVX NSCLC) was > 10 µM, the TGI (U251 CNS) was > 10 µM and the TGI (UACC-62 melanoma) was > 10 µM. The TGI (UO-31 renal) was > 10 µM, the TGI (HL-60(TB) leukemia) was > 10 µM and the TGI (HT29 colon) was > 10 µM. The TGI (OVCAR-4 ovarian) was > 10 µM and the TGI (786-0 renal) was > 10 µM.
Work on `Cc1ccc(/C=C/C(=O)CCN(C)C)cc1` yielded a TGI (DLD-1 colon) of 33.7 µM, a TGI (U251 CNS) of 30 µM and a TGI (UACC-62 melanoma) of 28.2 µM. The TGI (UO-31 renal) was 33.8 µM, the TGI (HL-60(TB) leukemia) was 47 µM and the TGI (HT29 colon) was 33.4 µM. For the same compound, the TGI (KM20L2 colon) was 37.2 µM, the TGI (OVCAR-4 ovarian) was 30.4 µM and the TGI (786-0 renal) was 32.6 µM.

Reference: PubChem BioAssay (NCI)
